Experimental data: EPA's CvTdb concentration-time database

Columns and labels:
[1] = system: Rat; assay: concentration in plasma after dosing; details: 0.2 h; dosed: 2-Methyltetrahydrofuran; 40 mg/kg; iv; Male; Harlan Sprague Dawley
[2] = system: Rat; assay: concentration in plasma after dosing; details: 0.75 h; dosed: 2-Methyltetrahydrofuran; 40 mg/kg; iv; Male; Harlan Sprague Dawley
[3] = system: Rat; assay: concentration in brain after dosing; details: 0.75 h; dosed: 2-Methyltetrahydrofuran; 40 mg/kg; iv; Male; Harlan Sprague Dawley
[4] = system: Rat; assay: concentration in plasma after dosing; details: 7 min; dosed: 2-Methyltetrahydrofuran; 40 mg/kg; iv; Male; Harlan Sprague Dawley
[5] = system: Rat; assay: concentration in plasma after dosing; details: 0.2 h; dosed: 2-Methyltetrahydrofuran; 40 mg/kg; iv; Male; Harlan Sprague Dawley; remark: listed apart in the source
[6] = system: Rat; assay: concentration in plasma after dosing; details: 2 min; dosed: 2-Methyltetrahydrofuran; 40 mg/kg; iv; Male; Harlan Sprague Dawley
[7] = system: Rat; assay: concentration in brain after dosing; details: 7 min; dosed: 2-Methyltetrahydrofuran; 40 mg/kg; iv; Male; Harlan Sprague Dawley
[8] = system: Rat; assay: concentration in plasma after dosing; details: dosed: 678-39-7, 40 mg/kg, iv, Female, Harlan Sprague-Dawley
[9] = system: Rat; assay: concentration in plasma after dosing; details: dosed: 678-39-7, 40 mg/kg, iv, Female, Harlan Sprague-Dawley; remark: listed apart in the source
[10] = system: Rat; assay: concentration in liver after dosing; details: 12 h; dosed: Fluorotelomer alcohol 8+2; 80 mg/kg; oral; Female; Harlan Sprague Dawley
[11] = system: Rat; assay: concentration in brain after dosing; details: 1 h; dosed: Fluorotelomer alcohol 8+2; 80 mg/kg; oral; Female; Harlan Sprague Dawley
[12] = system: Rat; assay: concentration in plasma after dosing; details: 5 min; dosed: 678-39-7; 12 mg/kg; iv; Male; F344
[13] = system: Rat; assay: concentration in liver after dosing; details: 12 h; dosed: Fluorotelomer alcohol 8+2; 24 mg/kg; oral; Male; Harlan Sprague Dawley
[14] = system: Rat; assay: concentration in plasma after dosing; details: 6 h; dosed: Gemfibrozil; 100 mg/kg; oral; Male; Sprague-Dawley
[15] = system: Rat; assay: concentration in plasma after dosing; details: 0.25 h; dosed: Gemfibrozil; 50 mg/kg; oral; Male; Sprague-Dawley
[16] = system: Rat; assay: concentration in plasma after dosing; details: 1 h; dosed: Gemfibrozil; 4.29 mg/kg; oral; Male; Sprague-Dawley
[17] = system: Rat; assay: concentration in plasma after dosing; details: 2 h; dosed: Gemfibrozil; 100 mg/kg; oral; Male; Sprague-Dawley
[18] = system: Rat; assay: concentration in plasma after dosing; details: 18 h; dosed: Gemfibrozil; 4.29 mg/kg; oral; Male; Sprague-Dawley
[19] = system: Rat; assay: concentration in plasma after dosing; details: 24 h; dosed: Gemfibrozil; 50 mg/kg; oral; Male; Sprague-Dawley
[20] = system: Rat; assay: concentration in plasma after dosing; details: 0.5 h; dosed: Perfluorohexanoic Acid; 40 mg/kg; iv; Male; F344
[21] = system: Rat; assay: concentration in liver after dosing; details: 0.5 h; dosed: Perfluorohexanoic Acid; 80 mg/kg; oral; Female; Harlan Sprague Dawley
[22] = system: Rat; assay: concentration in plasma after dosing; details: 1 h; dosed: Perfluorohexanoic Acid; 80 mg/kg; oral; Male; Harlan Sprague Dawley
[23] = system: Rat; assay: concentration in liver after dosing; details: 3 h; dosed: Perfluorohexanoic Acid; 80 mg/kg; oral; Female; Harlan Sprague Dawley
[24] = system: Rat; assay: concentration in kidney after dosing; details: 3 h; dosed: Perfluorohexanoic Acid; 80 mg/kg; oral; Male; Harlan Sprague Dawley
[25] = system: Rat; assay: concentration in plasma after dosing; details: dosed: Perfluorohexanoic Acid, 40 mg/kg, oral, Male, Harlan Sprague Dawley
[26] = system: Rat; assay: concentration in plasma after dosing; details: dosed: Perfluorooctane Sulfonate, 2 mg/kg, iv, Female, F344
[27] = system: Rat; assay: concentration in liver after dosing; details: 6 h; dosed: Perfluorooctane Sulfonate; 2 mg/kg; oral; Female; Harlan Sprague Dawley
[28] = system: Rat; assay: concentration in kidney after dosing; details: 1848 h; dosed: Perfluorooctane Sulfonate; 2 mg/kg; oral; Female; Harlan Sprague Dawley
[29] = system: Rat; assay: concentration in liver after dosing; details: 1848 h; dosed: Perfluorooctane Sulfonate; 20 mg/kg; oral; Male; Harlan Sprague Dawley
[30] = system: Rat; assay: concentration in kidney after dosing; details: 24 h; dosed: Perfluorooctane Sulfonate; 2 mg/kg; oral; Female; Harlan Sprague Dawley
[31] = system: Rat; assay: concentration in liver after dosing; details: 3360 h; dosed: Perfluorooctane Sulfonate; 20 mg/kg; oral; Male; Harlan Sprague Dawley
[32] = system: Rat; assay: concentration in plasma after dosing; details: dosed: Perfluorooctane Sulfonate, 2 mg/kg, iv, Female, Harlan Sprague-Dawley
[33] = system: Rat; assay: concentration in plasma after dosing; details: 3360 h; dosed: Perfluorooctane Sulfonate; 2 mg/kg; oral; Female; Harlan Sprague Dawley
[34] = system: Rat; assay: concentration in liver after dosing; details: 864 h; dosed: Perfluorooctane Sulfonate; 2 mg/kg; oral; Female; Harlan Sprague Dawley
[35] = system: Rat; assay: concentration in brain after dosing; details: 1848 h; dosed: Perfluorooctane Sulfonate; 20 mg/kg; oral; Male; Harlan Sprague Dawley
[36] = system: Rat; assay: concentration in kidney after dosing; details: 1848 h; dosed: Perfluorooctane Sulfonate; 2 mg/kg; oral; Female; Harlan Sprague Dawley; remark: listed apart in the source
[37] = system: Rat; assay: concentration in brain after dosing; details: 6 h; dosed: Perfluorooctane Sulfonate; 20 mg/kg; oral; Female; F344
[38] = system: Rat; assay: concentration in plasma after dosing; details: dosed: Perfluorooctane Sulfonate, 2 mg/kg, oral, Female, Harlan Sprague Dawley
[39] = system: Rat; assay: concentration in brain after dosing; details: 24 h; dosed: Perfluorooctane Sulfonate; 2 mg/kg; oral; Female; Harlan Sprague Dawley

CC1CCCO1 (configuration not stated) [2-Methyltetrahydrofuran]
Details | concentration in brain [µg/mL] | concentration in plasma [µg/mL]
[1] | – | 37.6
[2] | – | 22
[3] | 14.4 | –
[4] | – | 57.3
[5] | – | 37
[6] | – | 57.4
[7] | 23.7 | –

O=C(O)CCC(F)(F)C(F)(F)C(F)(F)C(F)(F)C(F)(F)C(F)(F)C(F)(F)F [Fluorotelomer acid 7+3]
concentration in plasma [ng/mL]
Details | 0.75 h | 1 h | 12 h | 24 h
[8] | 1830 | – | 863 | –
[9] | – | 1350 | – | 347

Details | concentration in brain [ng/g] | concentration in liver [ng/g] | concentration in plasma [ng/mL]
[10] | – | 7200 | –
[11] | 252 | – | –
[12] | – | – | 13.1
[13] | – | 1400 | –

Cc1ccc(C)c(OCCCC(C)(C)C(=O)O)c1 [Gemfibrozil]
Details | concentration in plasma [µg/mL]
[14] | 22.7
[15] | 79.3
[16] | 0.142
[17] | 10.7
[18] | 0.127
[19] | 0.846

O=C(O)C(F)(F)C(F)(F)C(F)(F)C(F)(F)C(F)(F)F [Perfluorohexanoic Acid]
Details | concentration in kidney [ng/g] | concentration in liver [ng/g] | concentration in plasma
[20] | – | – | 4980 ng/mL
[21] | – | 23800 | –
[22] | – | – | 146 µg/mL
[23] | – | 8200 | –
[24] | 65000 | – | –

[25]
Details | concentration in plasma [ng/mL]
3 h | 48700
5 min | 28800

O=S(=O)([O-])C(F)(F)C(F)(F)C(F)(F)C(F)(F)C(F)(F)C(F)(F)C(F)(F)C(F)(F)F [Perfluorooctane Sulfonate]
Details | concentration in plasma [ng/mL]
[26], 1 h | 4240
[26], 192 h | 4100
[26], 2376 h | 105
[32], 5 min | 5510
[32], 24 h | 3580
[32], 1200 h | 562
[38], 12 h | 6280
[38], 528 h | 2270

Details | concentration in brain [ng/g] | concentration in kidney [ng/g] | concentration in liver [ng/g] | concentration in plasma [ng/mL]
[27] | – | – | 24500 | –
[28] | – | 980 | – | –
[29] | – | – | 51700 | –
[30] | – | 4940 | – | –
[31] | – | – | 8480 | –
[33] | – | – | – | 144
[34] | – | – | 17500 | –
[35] | 1320 | – | – | –
[36] | – | 2040 | – | –
[37] | 3430 | – | – | –
[39] | 757 | – | – | –
